The results in this text go back to patent US20190069550A1, “HERBICIDAL COMPOSITIONS CONTAINING PYRIDINE CARBOXYLIC ACIDS OR DERIVATIVES THEREOF, WITH PDS AND VLCFA INHIBITORS, OR DERIVATIVES THEREOF” (Dow AgroSciences LLC, priority 2017, published 2019).

Common to all, as to type: in vivo
Common to all, as to conditions: 20-22 d

For assay [1], the system named is Abutilon theophrasti (velvetleaf). Kind of assay: Postemergence herbicidal activity, greenhouse, ABUTH. As to the method: (§1) Seeds of the desired test plant species were planted in Sun Gro MetroMix® 360 planting mixture, which typically has a pH of 6.0 to 6.8 and an organic matter content of about 30 percent, in plastic pots with a surface area of 103.2 square centimeters (cm^2). When required to ensure good germination and healthy plants, a fungicide treatment and/or other chemical or physical treatment was applied. The plants were grown for 7-36 days (d) in a greenhouse with an approximate 14-hour (h) photoperiod which was maintained at about 23° C. during the day and 22° C. during the night. Nutrients and water were added on a regular basis and supplemental lighting was provided with overhead metal halide 1000-Watt lamps as necessary. The plants were employed for testing when they reached the second or third true leaf stage.
(§2) Weighed amounts of technical material were dissolved in a volume of 97:3 volume per volume (v/v) acetone/dimethyl sulfoxide (DMSO) to make stock solutions. […] The concentrated stock solutions were diluted with an aqueous mixture of 1.5% v/v of Agri-dex crop oil concentrate to provide the appropriate application rates. […]
(§3) The treated plants and control plants were placed in a greenhouse as described above and watered by sub-irrigation to prevent wash-off of the test compounds. After 20-22 d, the condition of the test plants as compared with that of the control plants was determined visually and scored on a scale of 0 to 100 percent where 0 corresponds to no injury and 100 corresponds to complete kill. The condition of the test plants was compared with that of the control plants as determined visually and scored on a scale of 0 to 100 percent, where 0 corresponds to no injury and 100 corresponds to complete kill. […]
(§4) Compound 1 was formulated as an EC and was combined with phytoene desaturase inhibitor herbicides, very long chain fatty acid inhibitor herbicides, or mixtures thereof, and applied to weeds, and the phytotoxicity of the herbicidal composition was measured. […]

The test system of assay [2] is Amaranthus retroflexus (pigweed). The assay is described as follows: Postemergence herbicidal activity, greenhouse, AMARE. As to the method: as §1, §2, §3, §4
Assay [3] concerns Brassica napus (spring rape). Kind of assay: Postemergence herbicidal activity, greenhouse, BRSNN. The method, then:
as §1, §2, §3, §4

Assay [4] has as its system Cirsium arvense (thistle). Kind of assay: Postemergence herbicidal activity, greenhouse, CIRAR. The method, then: as §1
(§5) Weighed amounts of technical material were dissolved in a volume of 97:3 volume per volume (v/v) acetone/dimethyl sulfoxide (DMSO) to make stock solutions. […] The concentrated stock solutions were diluted with an aqueous mixture of 1.5% v/v of Agri-dex crop oil concentrate to provide the appropriate application rates. Compound requirements are based upon a 12 milliliter (mL) application volume at a rate of 187 liters per hectare (UJha). Spray solutions of the experimental compound mixtures were prepared by adding the stock solutions to the appropriate amount of dilution solution to form a 12 mL spray solution in two-way combinations. Formulated compounds were applied to the plant material with an overhead Mandel track sprayer equipped with 8002E nozzles calibrated to deliver 187 L/ha over an application area of 0.503 square meters (m^2) at a spray height of 18 inches ([…] (cm)) above average plant canopy. Control plants were sprayed in the same manner with the solvent blank. Application rates for component (a) are in g ae/ha, and application rates for component (b) are in g ai/ha.
as §3, §4

For assay [5], the system named is Chenopodium album L. (common lambsquarters). The assay is described as follows: Postemergence herbicidal activity, greenhouse, CHEAL. As to the method: as §1, §5, §3, §4
Assay [6] relates to Cyperus esculentus (nutsedge). Kind of assay: Postemergence herbicidal activity, greenhouse, CYPES. As to the method: When required to ensure good germination and healthy plants, a fungicide treatment and/or other chemical or physical treatment was applied. The plants were grown for 7-36 days (d) in a greenhouse with an approximate 14-hour (h) photoperiod which was maintained at about 23° C. during the day and 22° C. during the night. Nutrients and water were added on a regular basis and supplemental lighting was provided with overhead metal halide 1000-Watt lamps as necessary. The plants were employed for testing when they reached the second or third true leaf stage. Weighed amounts of technical material were dissolved in a volume of 97:3 volume per volume (v/v) acetone/dimethyl sulfoxide (DMSO) to make stock solutions. […] The concentrated stock solutions were diluted with an aqueous mixture of 1.5% v/v of Agri-dex crop oil concentrate to provide the appropriate application rates. Compound requirements are based upon a 12 milliliter (mL) application volume at a rate of 187 liters per hectare (UJha). Spray solutions of the experimental compound mixtures were prepared by adding the stock solutions to the appropriate amount of dilution solution to form a 12 mL spray solution in two-way combinations. […] Control plants were sprayed in the same manner with the solvent blank. Application rates for component (a) are in g ae/ha, and application rates for component (b) are in g ai/ha. The treated plants and control plants were placed in a greenhouse as described above and watered by sub-irrigation to prevent wash-off of the test compounds. […] Colby's equation was used to determine the herbicidal effects expected from the mixtures. Compound 1 was formulated as an EC and was combined with phytoene desaturase inhibitor herbicides, very long chain fatty acid inhibitor herbicides, or mixtures thereof, and applied to weeds, and the phytotoxicity of the herbicidal composition was measured. […]

The subject of assay [7] is Digitaria sanguinalis (large crabgrass). Kind of assay: Postemergence herbicidal activity, greenhouse, DIGSA. The method, then: as §1, with “The plants were employed for testing when they reached the second or third true leaf stage.” left out
as §3

Assay [8] relates to Echinochloa crus-galli (barnyardgrass). Kind of assay: Postemergence herbicidal activity, greenhouse, ECHCG. The method, then: as §1, §2, §3, §4
The test system of assay [9] is Euphorbia heterophylla (poinsettia). The assay is described as follows: Postemergence herbicidal activity, greenhouse, EPHHL. As to the method:
as §1, §5
The treated plants and control plants were placed in a greenhouse as described above and watered by sub-irrigation to prevent wash-off of the test compounds. After 20-22 d, the condition of the test plants as compared with that of the control plants was determined visually and scored on a scale of 0 to 100 percent where 0 corresponds to no injury and 100 corresponds to complete kill. The condition of the test plants was compared with that of the control plants as determined visually and scored on a scale of 0 to 100 percent, where 0 corresponds to no injury and 100 corresponds to complete kill. Colby's equation was used to determine the herbicidal effects expected from the mixtures.
as §4

Assay [10] deals with Ipomoea hederacea (ivyleaf morningglory). Kind of assay: Postemergence herbicidal activity, greenhouse, IPOHE. As to the method: as §1, §2, §3, §4
In the next assay the test system is Kochia scoparia (kochia). Kind of assay: Postemergence herbicidal activity, greenhouse, KCHSC. The method, then:
as §1, §2, §3, §4

Another assay concerns Oryza sativa (rice). Kind of assay: Postemergence crop injury, greenhouse, ORYSA. As to the method:
as §1, with “The plants were employed for testing when they reached the second or third true leaf stage.” left out
as §3

Assay [11] deals with Polygonum convolvulus (wild buckwheat). The assay is described as follows: Postemergence herbicidal activity, greenhouse, POLCO. As to the method: as §1, §2, §3, §4
Assay [12] has as its system Sorghum vulgare (grain sorghum). The assay is described as follows: Postemergence herbicidal activity, greenhouse, SORVU. As to the method: as §1, §2, §3, §4
Assay [13] relates to Stellaria media (chickweed). Kind of assay: Postemergence herbicidal activity, greenhouse, STEME. As to the method: as §1, with “The plants were employed for testing when they reached the second or third true leaf stage.” left out
as §3

Assay [14] deals with Triticum aestivum (winter wheat). The assay is described as follows: Postemergence crop injury, greenhouse, TRZAW. As to the method: as §1, §2, §3, §4
Assay [15] deals with Veronica hederifolia (ivyleaf speedwell). Kind of assay: Postemergence herbicidal activity, greenhouse, VERHE. The method, then:
as §1, with “The plants were employed for testing when they reached the second or third true leaf stage.” left out
as §3

In assay [16] the test system is Viola tricolor (wild pansy). Kind of assay: Postemergence herbicidal activity, greenhouse, VIOTR. As to the method:
as §1, §2, §3, §4

Another assay has as its system Zea mays (maize/corn). The assay is described as follows: Postemergence crop injury, greenhouse, ZEAMX. The method, then:
as §1, §2, §3, §4

Structures are written as SMILES. Where “and” joins values, the source holds several entries; their conditions need not be identical. Equal values may be shown once.

In the case of `Nc1c(F)c(-c2ccc3cc[nH]c3c2F)nc(C(=O)O)c1Cl` [Compound 1], the “% Visual Injury” value in [1] (10 g ae/ha) was 50%; in assay [2] (5 g ae/ha), 93% and 65%; in assay [3] (5 g ae/ha), 50%; in assay [4] (10 g ae/ha), 60%; in assay [5] (5 g ae/ha), 90% and 80%; in assay [5] (10 g ae/ha) it was 95%. Moreover, the “% Visual Injury” value in [6] (5 g ae/ha) was 10%; in assay [7] (5 g ae/ha), 0%; in [8] (5 g ae/ha), 60%; in assay [9] (5 g ae/ha), 97% and 75%; in assay [9] (10 g ae/ha) it was 100%; in [10] (5 g ae/ha), 20%. Moreover, the “% Visual Injury” value with Kochia scoparia (kochia) (5 g ae/ha) amounted to 65%; in the assay with Oryza sativa (rice) (5 g ae/ha), 0%; in assay [11] (5 g ae/ha), 70%; in assay [12] (5 g ae/ha) it was 60%; in [13] (5 g ae/ha) it was 65%; in assay [14] (5 g ae/ha), 10%. The “% Visual Injury” value in assay [15] (5 g ae/ha) was 40%; in assay [16] (5 g ae/ha), 10% and 5%; in the assay on Zea mays (maize/corn) (5 g ae/ha), 10%.
`O=C(Nc1ccc(F)cc1F)c1cccnc1Oc1cccc(C(F)(F)F)c1` [Diflufenican, N-(2,4-difluorophenyl)-2-[3-(trifluoromethyl)phenoxy]-3-pyridinecarboxamide]: the “% Visual Injury” value was 0% in assay [1] (diflufenican 50 g ai/ha); 20% in assay [3] (diflufenican 50 g ai/ha); 20% in [4] (diflufenican 50 g ai/ha); 0% in assay [6] (diflufenican 50 g ai/ha); 10% in assay [7] (diflufenican 50 g ai/ha); 0% in assay [8] (diflufenican 50 g ai/ha). In addition, the “% Visual Injury” value in assay [9] (diflufenican 50 g ai/ha) was found to be 10%; in [10] (diflufenican 50 g ai/ha), 0%; with Kochia scoparia (kochia) (diflufenican 50 g ai/ha), 10%; in the assay on Oryza sativa (rice) (diflufenican 50 g ai/ha), 0%; in assay [11] (diflufenican 50 g ai/ha), 10%; in assay [12] (diflufenican 50 g ai/ha), 0%. Besides, the “% Visual Injury” value was determined as 0% in assay [14] (diflufenican 50 g ai/ha) and 5% with Zea mays (maize/corn) (diflufenican 50 g ai/ha).
For the molecule `CC(C)N(C(=O)COc1nnc(C(F)(F)F)s1)c1ccc(F)cc1` [Flufenacet, N-(4-fluorophenyl)-N-(1-methylethyl)-2-[[5-(trifluoromethyl)-1,3,4-thiadiazol-2-yl]oxy]acetamide], the “% Visual Injury” value was found to be 0% in [1] (flufenacet 60 g ai/ha), 0% in [4] (flufenacet 60 g ai/ha), 10% in assay [5] (flufenacet 60 g ai/ha) and 0% in assay [9] (flufenacet 60 g ai/ha).
On to `O=C(Nc1ccc(F)cc1)c1cccc(Oc2cccc(C(F)(F)F)c2)n1` [Picolinafen, N-(4-fluorophenyl)-6-[3-(trifluoromethyl)phenoxy]-2-pyridinecarboxamide], for which the “% Visual Injury” value in assay [2] (picolinafen 12.5 g ai/ha) is 20%; in assay [3] (picolinafen 12.5 g ai/ha), 25%; in assay [4] (picolinafen 12.5 g ai/ha), 10%; in [6] (picolinafen 12.5 g ai/ha) it was 0%; in [8] (picolinafen 12.5 g ai/ha), 10%; in [10] (picolinafen 12.5 g ai/ha) it was 5%. For the same molecule, the “% Visual Injury” value in assay [11] (picolinafen 12.5 g ai/ha) came to 0%; in assay [12] (picolinafen 12.5 g ai/ha), 0%; in assay [14] (picolinafen 12.5 g ai/ha), 0%; in assay [16] (picolinafen 12.5 g ai/ha), 10%; in the assay with Zea mays (maize/corn) (picolinafen 12.5 g ai/ha) it was 5%.
As to `Cn1nc(C(F)(F)F)c(CS(=O)(=O)C2=NOC(C)(C)C2)c1OC(F)F` [Pyroxasulfone, 3-[[[5-(difluoromethoxy)-1-methyl-3-(trifluoromethyl)-1H-pyrazol-4-yl]methyl]sulfonyl]-4,5-dihydro-5,5-dimethylisoxazole], the “% Visual Injury” value in assay [2] (pyroxasulfone 100 g ai/ha) is listed as 0%; in [5] (pyroxasulfone 100 g ai/ha), 10%; in assay [9] (pyroxasulfone 100 g ai/ha) it was 0%; in the assay on Kochia scoparia (kochia) (pyroxasulfone 100 g ai/ha) it was 0%; in assay [13] (pyroxasulfone 100 g ai/ha), 40%; in assay [15] (pyroxasulfone 100 g ai/ha), 0%. Also, the “% Visual Injury” value in [16] (pyroxasulfone 100 g ai/ha) is listed as 0%.
